Test results published in ChEMBL document CHEMBL3243930 (J Med Chem, 1979).
Converted amounts (≈) assume the structure as drawn.

Columns and labels:
[1] = Inhibition of pigeon liver dihydrofolate reductase; set-up: species or system Columba livia; details: read-out: I50
L1210 [2] = assay: Antitumor activity against mouse L1210 cells […] in mouse assessed as increase in life span at 100 mg/kg, ip qd from day 1 to day 9 relative to control; format: functional; details: route intraperitoneal
KB [3] = assay: Cytotoxicity against human KB cells; format: functional; details: read-out: ED50 (the source's name)
Columba livia = assay: Potency index, ratio of I50 for MTX to I50 for compound against pigeon liver dihydrofolate reductase
KB [4] = assay: Potency index, ratio of ED50 for MTX to ED50 for compound against human KB cells; format: functional
L1210 [5] = assay: Antitumor activity against mouse L1210 cells […] in mouse assessed as increase in life span at 0.44 mg/kg, ip qd from day 1 to day 9 relative to control; format: functional; details: route intraperitoneal
L1210 [6] = assay: Antitumor activity against mouse L1210 cells […] in mouse assessed as increase in life span at 25 mg/kg, ip qd from day 1 to day 9 relative to control; format: functional; details: route intraperitoneal
L1210 [7] = assay: Antitumor activity against mouse L1210 cells […] in mouse assessed as increase in life span at 0.67 mg/kg, ip qd from day 1 to day 9 relative to control; format: functional; details: route intraperitoneal
L1210 [8] = assay: Antitumor activity against mouse L1210 cells […] in mouse assessed as increase in life span at 500 mg/kg, ip qd from day 1 to day 9 relative to control; format: functional; details: route intraperitoneal
L1210 [9] = assay: Antitumor activity against mouse L1210 cells […] in mouse assessed as increase in life span at 1.3 mg/kg, ip qd from day 1 to day 9 relative to control; format: functional; details: route intraperitoneal
L1210 [10] = assay: Antitumor activity against mouse L1210 cells […] in mouse assessed as increase in life span at 1.5 mg/kg, ip qd from day 1 to day 9 relative to control; format: functional; details: route intraperitoneal
L1210 [11] = assay: Antitumor activity against mouse L1210 cells […] in mouse assessed as increase in life span at 200 mg/kg, ip qd from day 1 to day 9 relative to control; format: functional; details: route intraperitoneal
L1210 [12] = assay: Antitumor activity against mouse L1210 cells […] in mouse assessed as increase in life span at 20 mg/kg, ip qd from day 1 to day 9 relative to control; format: functional; details: route intraperitoneal
L1210 [13] = assay: Antitumor activity against mouse L1210 cells […] in mouse assessed as increase in life span at 10 mg/kg, ip qd from day 1 to day 9 relative to control; format: functional; details: route intraperitoneal
[14] = Dissociation constant, pKa of the compound; format: physicochemical
L1210 [15] = assay: Antitumor activity against mouse L1210 cells […] in mouse assessed as increase in life span at 200 mg/kg, ip qd administered on day 2 and day 6 relative to control; format: functional; details: route intraperitoneal
HEp-2 = assay: Potency index, ratio of ED50 for MTX to ED50 for compound against human Hep2 cells; format: functional
[16] = Cytotoxicity against human Hep2 cells; format: functional; details: HEp-2, read-out: ED50 (the source's name)
L1210 [17] = assay: Antitumor activity against mouse L1210 cells […] in mouse assessed as increase in life span at 50 mg/kg, ip qd from day 1 to day 9 relative to control; format: functional; details: route intraperitoneal

| SMILES | IC50 [1] [nM] | EC50 (KB [3]) [µg/mL] | Ratio (Columba livia) | Ratio ED50 (KB [4]) | other results |
| --- | --- | --- | --- | --- | --- |
| Nc1nc(N)c2nc(CNc3ccc(S(=O)(=O)N[C@@H](CCC(=O)O)C(=O)O)cc3)cnc2n1 | 1100 | 45 (≈ 94.4 µM) | 39 | 11000 | ILS at 100 mg/kg (L1210 [2]): 27% |
| Nc1nc(N)c2nc(CNc3ccc(C(=O)N[C@@H](CCC(=O)O)C(=O)O)nc3)cnc2n1 | 30 | 0.006 (≈ 0.0136 µM) | 1.2 | 1.5 | ILS at 0.44 mg/kg (L1210 [5]): 69% |
| Nc1nc(N)c2nc(CNc3ccc(C(=O)NCCCC(=O)O)cc3)cnc2n1 | 380 | > 100 | 15 | – | ILS at 25 mg/kg (L1210 [6]): 1% |
| Nc1nc(N)c2nc(CNc3ccc(C(=O)N[C@@H](CCC(=O)O)C(=O)O)cc3)cnc2n1 [AMINOPTERIN] | 26 | 0.003 (≈ 0.00681 µM) | 1 | 0.75 | ILS at 0.67 mg/kg (L1210 [7]): 74% |
| Nc1nc(N)c2nc(CNc3ccc(CCC(=O)N[C@@H](CCC(=O)O)C(=O)O)cc3)cnc2n1 | 460 | 37 (≈ 79 µM) | 33 | 9300 | ILS at 500 mg/kg (L1210 [8]): 1% |
| CN(CCCCC(=O)N[C@@H](CCC(=O)O)C(=O)O)Cc1cnc2nc(N)nc(N)c2n1 | 20000 | > 100 | 770 | – | – |
| Nc1nc(N)c2nc(COc3ccc(C(=O)N[C@@H](CCC(=O)O)C(=O)O)cc3)cnc2n1 | 510 | 3.5 (≈ 7.93 µM) | 20 | 875 | ILS at 1.3 mg/kg (L1210 [9]): 32% |
| CN(Cc1cnc2nc(N)nc(N)c2n1)c1ccc(C(=O)N[C@@H](CCC(=O)O)C(=O)O)cc1 [METHOTREXATE] | 26 | 0.004 (≈ 0.0088 µM) | – | – | ILS at 1.5 mg/kg (L1210 [10]): 72% |
| Nc1nc(N)c2nc(CNc3ccc(CC(=O)N[C@@H](CC(=O)O)C(=O)O)cc3)cnc2n1 | 1000 | > 100 | 38 | – | ILS at 200 mg/kg (L1210 [11]): 29% |
| Nc1nc(N)c2nc(CNc3ccc(C(=O)NC(CCCCC(=O)O)C(=O)O)cc3)cnc2n1 (stereo unspecified) | 13 | 0.025 (≈ 0.0534 µM) | 0.5 | 6.3 | ILS at 20 mg/kg (L1210 [12]): 57% |
| Nc1nc(N)c2nc(CN(Cc3ccccc3)c3ccc(C(=O)N[C@@H](CCC(=O)O)C(=O)O)cc3)cnc2n1 | 14000 | > 100 | 310 | – | – |
| CCN(Cc1cnc2nc(N)nc(N)c2n1)c1c(Cl)cc(C(=O)N[C@@H](CCC(=O)O)C(=O)O)cc1Cl | 50 | 0.022 (≈ 0.0409 µM) | 1.1 | 5.5 | ILS at 100 mg/kg (L1210 [2]): 70% |
| Nc1nc(N)c2nc(CN(c3ccccc3)c3ccc(C(=O)N[C@@H](CCC(=O)O)C(=O)O)cc3)cnc2n1 | 280 | 26 (≈ 50.3 µM) | 11 | 6500 | – |
| CCN(Cc1cnc2nc(N)nc(N)c2n1)c1ccc(C(=O)N[C@@H](CCC(=O)O)C(=O)O)cc1 | 45 | 0.005 (≈ 0.0107 µM) | 1 | 1.3 | ILS at 10 mg/kg (L1210 [13]): 117% |
| CN(Cc1cnc2nc(N)c(Br)c(N)c2n1)c1ccc(C(=O)N[C@@H](CCC(=O)O)C(=O)O)cc1 | 2500 | 76 (≈ 143 µM) | 190 | 19000 | pKa [14]: 5.1; ILS at 200 mg/kg (L1210 [15]): 1% |
| CN(Cc1cnc2nc(N)c([N+](=O)[O-])c(N)c2n1)c1ccc(C(=O)N[C@@H](CCC(=O)O)C(=O)O)cc1 | 38000 | > 100 | 1400 | – | pKa [14]: 4.3; ILS at 200 mg/kg (L1210 [15]): 1% |
| Nc1nc(N)c2nc(CNc3ccc(C(=O)NCC(=O)O)cc3)cnc2n1 | 1100 | 88 (≈ 239 µM) | 42 | 22000 | – |
| CN(Cc1cnc2nc(N)cc(N)c2n1)c1ccc(C(=O)N[C@@H](CCC(=O)O)C(=O)O)cc1 | 63 | – | 4.8 | – | Ratio ED50 (HEp-2): 13; ILS at 100 mg/kg (L1210 [2]): 64%; EC50 [16]: 0.05 µg/mL (≈ 0.11 µM) |
| CN(Cc1ccc(C(=O)N[C@@H](CCC(=O)O)C(=O)O)cc1)Cc1cnc2nc(N)nc(N)c2n1 | 750 | 0.043 (≈ 0.0918 µM) | 29 | 11 | ILS at 50 mg/kg (L1210 [17]): 36% |
| Nc1nc(N)c2nc(CNc3ccc(CC(=O)N[C@@H](CCC(=O)O)C(=O)O)cc3)cnc2n1 | 380 | 41 (≈ 90.2 µM) | 15 | 10000 | ILS at 500 mg/kg (L1210 [8]): 35% |
